According to US20190315823A1, “SMALL CATIONIC ANTI-BIOFILM AND IDR PEPTIDES” (priority 2013, published 2019):
Ends that are not written are not given here.

Legend:
[1] = tested on: human peripheral blood mononuclear cells (MCP-1); test: SPOT-synthesized derivative screen: production of chemokine MCP-1; type: cell-based; conditions: Table 12, No LPS, human PBMC, peptide at ~18-24 μM; for MCP1: background subtracted 139 (HH2 derivatives), 170 (1018 derivatives), 242 (1002 and hybrid peptides) pg/ml
Summary of the method: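 PBMC from heparinized healthy-donor venous blood, Ficoll-separated, cultured at 0.75 to 1×10^6 cells/ml, 37 °C, 5% CO2, under the treatment regimens. MCP-1 in cell-free supernatants measured by capture ELISA.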

[2] = tested on: methicillin resistant Staphylococcus aureus (MRSA) biofilm; conditions: approximate peptide concentration […] (around 3 μg/ml); compared to untreated samples
Summary of the method: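 Static biofilm assay: 1/100 dilutions of overnight cultures grown in BM2 medium (pH 7, glucose, Casamino Acids) or Luria Broth with peptide added at time zero. After 22–46 h, adherent biofilm was stained with crystal violet and read at 595 nm. Some peptides were also tested on K. pneumoniae under flow in a Bioflux system.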

[3] = tested on: LPS-stimulated human peripheral blood mononuclear cells (IL1-β); type: cell-based; conditions: Table 12, cells stimulated with 10 ng/ml LPS; for IL1β Production: LPS alone 1313 (HH2 derivatives), 1927 (1018 derivatives), 2455 (1002 and hybrid peptides) pg/ml

Substance | Fold increase in MCP1 cf. untreated cells [1] | MCP1 [1] | % Biofilm inhibition [2] | Fold change in IL1β relative to no peptide LPS stimulated cells [3] | IL1β Production [3]
HH2-K7: single substituted HH2 peptide (VQLRIRKAVIRA-NH2) | 1.7 | 117 pg/mL | 7% | 1.36 | 1782 pg/mL
1018-G5: single substituted 1018 peptide (VRLIGAVRIWRR-NH2) [Peptide 1018-G5] | 13 | 2090 pg/mL | 38% | 1.23 | 1620 pg/mL
1002-Q3: single substituted 1002 peptide (VQQWLIVWRIRK-NH2) [Peptide 1002-Q3] | 2.4 | 343.8 pg/mL | 70% | 0.05 | 127 pg/mL
1002-G2: single substituted 1002 peptide (VGRWLIVWRIRK-NH2) [Peptide 1002-G2] | 4.7 | 891.9 pg/mL | 74% | 0.05 | 127 pg/mL
HH2-I12: single substituted HH2 peptide (VQLRIRVAVIRI-NH2) | 18 | 2845 pg/mL | 65% | 0.51 | 667 pg/mL
HH2-L4: single substituted HH2 peptide (VQLLIRVAVIRA-NH2) | 18 | 2884 pg/mL | 54% | 0.61 | 800 pg/mL
1002-R7: single substituted 1002 peptide (VQRWLIRWRIRK-NH2) [Peptide 1002-R7] | 2.1 | 270.8 pg/mL | 58% | 0.16 | 382 pg/mL
1002-K9: single substituted 1002 peptide (VQRWLIVWKIRK-NH2) [Peptide 1002-K9] | 1.6 | 143.9 pg/mL | 50% | 0.05 | 127 pg/mL
1002-V2: single substituted 1002 peptide (VVRWLIVWRIRK-NH2) [Peptide 1002-V2] | 22.5 | 5209.2 pg/mL | 72% | 0.05 | 127 pg/mL
HH2-G7: single substituted HH2 peptide (VQLRIRGAVIRA-NH2) | 1.5 | 78 pg/mL | 33% | 1.02 | 1344 pg/mL
1002-G8: single substituted 1002 peptide (VQRWLIVGRIRK-NH2) [Peptide 1002-G8] | 0.9 | -36.2 pg/mL | 42% | 0.28 | 692 pg/mL
HH2-W1: single substituted HH2 peptide (WQLRIRVAVIRA-NH2) | 29 | 4725 pg/mL | 67% | 0.66 | 866 pg/mL
HH2-A11: single substituted HH2 peptide (VQLRIRVAVIAA-NH2) | 5.9 | 833 pg/mL | 64% | 1.60 | 2105 pg/mL
1002-G3: single substituted 1002 peptide (VQGWLIVWRIRK-NH2) [Peptide 1002-G3] | 14.0 | 3157.8 pg/mL | 56% | 0.05 | 127 pg/mL
1002-G11: single substituted 1002 peptide (VQRWLIVWRIGK-NH2) [Peptide 1002-G11] | 2.9 | 465.0 pg/mL | 60% | 0.05 | 127 pg/mL
HH2-W12: single substituted HH2 peptide (VQLRIRVAVIRW-NH2) | 44 | 7325 pg/mL | 58% | 0.32 | 420 pg/mL
1002-R10: single substituted 1002 peptide (VQRWLIVWRRRK-NH2) [Peptide 1002-R10] | 2.5 | 375.3 pg/mL | 15% | 0.05 | 127 pg/mL
1018-I2: single substituted 1018 peptide (VILIVAVRIWRR-NH2) [Peptide 1018-I2] | 44 | 7342 pg/mL | 61% | 0.42 | 557 pg/mL
1002-R12: single substituted 1002 peptide (VQRWLIVWRIRR-NH2) [Peptide 1002-R12] | 2.1 | 270.8 pg/mL | 62% | 0.05 | 127 pg/mL
1018-Q4: single substituted 1018 peptide (VRLQVAVRIWRR-NH2) [Peptide 1018-Q4] | 0.4 | -104 pg/mL | 39% | 0.35 | 458 pg/mL
1018-I8: single substituted 1018 peptide (VRLIVAVIIWRR-NH2) [Peptide 1018-I8] | 1.0 | 2 pg/mL | 39% | 0.86 | 1125 pg/mL
1018-Q1: single substituted 1018 peptide (QRLIVAVRIWRR-NH2) [Peptide 1018-Q1] | 3.1 | 363 pg/mL | 46% | 0.12 | 158 pg/mL
1018-L12: single substituted 1018 peptide (VRLIVAVRIWRL-NH2) [Peptide 1018-L12] | 1.2 | 29 pg/mL | 44% | 0.17 | 220 pg/mL
1018-K1: single substituted 1018 peptide (KRLIVAVRIWRR-NH2) [Peptide 1018-K1] | 1.2 | 40 pg/mL | 49% | 0.13 | 173 pg/mL
HH2-G1: single substituted HH2 peptide (GQLRIRVAVIRA-NH2) | 1.9 | 157 pg/mL | 65% | 1.17 | 1533 pg/mL
HH2-I6: single substituted HH2 peptide (VQLRIIVAVIRA-NH2) | 8.1 | 1206 pg/mL | 45% | 0.75 | 984 pg/mL
HH2-Q11: single substituted HH2 peptide (VQLRIRVAVIQA-NH2) | 17 | 2759 pg/mL | 63% | 0.78 | 1020 pg/mL
HH2-L2: single substituted HH2 peptide (VLLRIRVAVIRA-NH2) | 13 | 1950 pg/mL | 69% | 0.89 | 1172 pg/mL
1002-V12: single substituted 1002 peptide (VQRWLIVWRIRV-NH2) [Peptide 1002-V12] | 1.3 | 76.4 pg/mL | 67% | 0.05 | 127 pg/mL
HH2-L5: single substituted HH2 peptide (VQLRLRVAVIRA-NH2) | 1.6 | 97 pg/mL | 58% | 0.88 | 1156 pg/mL
